Tests used:
[1] = molecular target: T1, HCV NS3/4A protease complex (BMS strain) (UniProt P27958); assay: Recombinant HCV NS3/4A protease complex FRET peptide assay (BMS strain); assay type: biochemical, Hepatitis C virus (genotype 1a; settings: read-out: IC50 (uuM); NS3/4A BMS strain; activity range class
T1 construct: for H77 and J4L6S; fused on or other part: Probably a three-lysine solubilising tail at the C-terminus of NS4A and a His tag from pET21b (Ni-NTA purification); These are printed for the H77 and J4L6S constructs and only inferred for BMS
T1 sequence (P27958 1027-1657, one chain of several): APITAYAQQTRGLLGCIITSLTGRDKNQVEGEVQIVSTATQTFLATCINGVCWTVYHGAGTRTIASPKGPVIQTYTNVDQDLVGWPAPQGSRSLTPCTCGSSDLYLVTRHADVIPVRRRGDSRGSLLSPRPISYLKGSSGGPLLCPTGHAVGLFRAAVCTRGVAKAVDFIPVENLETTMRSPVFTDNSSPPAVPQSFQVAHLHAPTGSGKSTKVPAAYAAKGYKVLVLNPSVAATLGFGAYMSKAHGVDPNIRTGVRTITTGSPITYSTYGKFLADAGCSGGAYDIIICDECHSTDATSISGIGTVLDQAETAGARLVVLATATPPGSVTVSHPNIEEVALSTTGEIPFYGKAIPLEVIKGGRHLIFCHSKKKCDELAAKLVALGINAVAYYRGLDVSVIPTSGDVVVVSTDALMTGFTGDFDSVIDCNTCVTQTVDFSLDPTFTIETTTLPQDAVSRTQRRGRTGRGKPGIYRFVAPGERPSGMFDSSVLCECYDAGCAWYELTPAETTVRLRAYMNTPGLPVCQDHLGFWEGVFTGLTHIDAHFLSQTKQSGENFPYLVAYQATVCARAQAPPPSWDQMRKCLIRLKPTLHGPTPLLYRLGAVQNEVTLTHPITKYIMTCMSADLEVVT
Source text: Serum from an HCV-infected patient was obtained from Dr. T. Wright, San Francisco Hospital. An engineered full-length cDNA (compliment deoxyribonucleic acid) template of the HCV genome (BMS strain) was constructed from DNA fragments obtained by reverse transcription-PCR (RT-PCR) of serum RNA (ribonucleic acid) and using primers selected on the basis of homology between other genotype 1a strains.
The H77 and J4L6S strains were used for production of recombinant NS3/4A protease complexes. […] Briefly, a three-lysine solubilizing tail was added at the 3′-end of the NS4A coding region. […] Briefly, the NS3/4A protease complex expression was induced with 0.5 millimolar (mM) Isopropyl β-D-1-thiogalactopyranoside (IPTG) for 22 hours (h) at 20° C. […] The cells were resuspended in lysis buffer (10 mL/g) consisting of 25 mM N-(2-Hydroxyethyl)Piperazine-N′-(2-Ethane Sulfonic acid) (HEPES), pH 7.5, 20% glycerol, 500 mM Sodium Chloride (NaCl), 0.5% Triton X-100, 1 microgram/milliliter (“μg/mL”) lysozyme, 5 mM Magnesium Chloride (MgCl2), 1 gg/ml DnaseI, 5 mM β-Mercaptoethanol (βME), Protease inhibitor—Ethylenediamine Tetraacetic acid (EDTA) free (Roche), homogenized and incubated for 20 minutes (min) at 4° C. The homogenate was sonicated and clarified by ultra-centrifugation at 235000 g for 1 h at 4° C. Imidazole was added to the supernatant to a final concentration of 15 mM and the pH adjusted to 8.0. The crude protein extract was loaded on a Nickel-Nitrilotriacetic acid (Ni-NTA) column pre-equilibrated with buffer B (25 mM HEPES, pH 8.0, 20% glycerol, 500 mM NaCl, 0.5% Triton X-100, 15 mM imidazole, 5 mM βME). The sample was loaded at a flow rate of 1 mL/min. The column was washed with 15 column volumes of buffer C (same as buffer B except with 0.2% Triton X-100). The protein was eluted with 5 column volumes of buffer D (same as buffer C except with 200 mM Imidazole).
NS3/4A protease complex-containing fractions were pooled and loaded on a desalting column Superdex-S200 pre-equilibrated with buffer D (25 mM HEPES, pH 7.5, 20% glycerol, 300 mM NaCl, 0.2% Triton X-100, 10 mM βME). Sample was loaded at a flow rate of 1 mL/min. NS3/4A protease complex-containing fractions were pooled and concentrated to approximately 0.5 mg/ml.
The enzyme was stored at −80° C., thawed on ice and diluted prior to use in assay buffer. […] The sequence of this peptide is loosely based on the NS4A/NS4B natural cleavage site for the HCV NS3 protease except there is an ester linkage rather than an amide bond at the cleavage site. The peptide substrate was incubated with one of the three recombinant NS3/4A protease complexes, in the absence or presence of a compound of the present invention, and the formation of fluorescent reaction product was followed in real time using a Cytofluor Series 4000.
Assay buffer: 50 mM HEPES, pH 7.5; 0.15 M NaCl; 0.1% Triton; 15% Glycerol; 10 mM βME. Substrate: 2 μM final concentration (from a 2 mM stock solution in DMSO stored at −20° C.). HCV NS3/4A protease type 1a (1b), 2-3 nM final concentration (from a 5 μM stock solution in 25 mM HEPES, pH 7.5, 20% glycerol, 300 mM NaCl, 0.2% Triton-X100, 10 mM βME).
The assay was performed in a 96-well polystyrene black plate from Falcon. Each well contained 25 μl NS3/4A protease complex in assay buffer, 50 μl of a compound of the present invention in 10% DMSO/assay buffer and 25 μl substrate in assay buffer. A control (no compound) was also prepared on the same assay plate.

[2] = system: HCV replicon (strain 1b) in Huh7 cells; assay: microbe, parasite or virus in culture; assay type: cell-based; settings: Hepatitis C virus, Huh-7, 96 h; Huh7 cells expressing HCV replicon, 4 days; activity range class
Source text: This system enabled us to evaluate the effects of our HCV Protease compounds on HCV RNA replication. Briefly, using the HCV strain 1b sequence described in the Lohmann paper (Assession number: AJ238799), an HCV cDNA was generated encoding the 5′ internal ribosome entry site (IRES), the neomycin resistance gene, the EMCV (encephalomyocarditis virus)-IRES and the HCV nonstructural proteins, NS3-NS5B, and 3′ non-translated region (NTR). In vitro transcripts of the cDNA were transfected into the human hepatoma cell line, Huh7. […] Resulting cell lines were characterized for positive and negative strand RNA production and protein production over time.
Huh7 cells, constitutively expressing the HCV replicon, were grown in Dulbecco's Modified Eagle Media (DMEM) containing 10% Fetal calf serum (FCS) and 1 mg/ml G418 (Gibco-BRL). Cells were seeded the night before (1.5×10^4 cells/well) in 96-well tissue-culture sterile plates. Compound and no compound controls were prepared in DMEM containing 4% FCS, 1:100 Penicillin/Streptomysin, 1:100 L-glutamine and 5% DMSO in the dilution plate (0.5% DMSO final concentration in the assay). Compound/DMSO mixes were added to the cells and incubated for 4 days at 37° C. After 4 days, plates were rinsed thoroughly with Phosphate-Buffered Saline (PBS) (3 times 150 μl). The cells were lysed with 25 μl of a lysis assay reagent containing the FRET peptide (RET S1, as described for the in vitro enzyme assay). The lysis assay reagent was made from 5× cell Luciferase cell culture lysis reagent (Promega #E153A) diluted to 1× with distilled water, NaCl added to 150 mM final, the FRET peptide diluted to 10 μM final from a 2 mM stock in 100% DMSO. The plate was then placed into the Cytofluor 4000 instrument which had been set to 340 nm excitation/490 nm emission, automatic mode for 21 cycles and the plate read in a kinetic mode. EC50 determinations were carried out as described for the IC50 determinations.
The replicon construct described for our FRET assay was modified by replacing the resistance gene neomycin with the Blasticidin-resistance gene fused to the N-terminus of the humanized form of Renilla luciferase (restriction sites Asc1/Pme1 used for the subcloning). […] The luciferase reporter assay was set up by seeding huh7 cells the night before at a density of 2×10^6 cells per T75 flask. Cells were washed the next day with 7.5 ml Opti-MEM. Following the Invitrogen protocol, 40 μl DMRIE-C was vortexed with 5 ml Opti-MEM before adding 5 μg HCV reporter replicon RNA. The mix was added to the washed huh7 cells and left for 4 h at 37° C. In the mean time, serial compound dilutions and no compound controls were prepared in DMEM containing 10% FCS and 5% DMSO in the dilution plate (0.5% DMSO final concentration in the assay). Compound/DMSO mixes were added to each well of a 24-well plate. After 4 h, the transfection mix was aspirated, and cells washed with 5 ml of Opti-MEM before trypsinization. Trypsinized cells were resuspended in 10% DMEM and seeded at 2×10^4 cells/well in the 24-well plates containing compound or no compound controls. Plates were incubated for 4 days. After 4 days, media was removed and cells washed with PBS. 100 μl 1× Renilla Luciferase Lysis Buffer (Promega) was immediately added to each well and the plates either frozen at −80° C. for later analysis, or assayed after 15 min of lysis. Lysate (40 μl) from each well was transferred to a 96-well black plate (clear bottom) followed by 200 μl 1× Renilla Luciferase assay substrate. Plates were read immediately on a Packard TopCount NXT using a luminescence program.
The values were graphed and analyzed using XLFit to obtain the EC50 value.

| SMILES | IC50 [1] [nM] | EC50 [2] [nM] |
| --- | --- | --- |
| C=C[C@@H]1C[C@]1(NC(=O)[C@@H]1C[C@@H](Oc2nccc3cc(OC)ccc23)CN1C(=O)[C@@H](NC(=O)OC(C)(C)C)C(C)(C)C)C(=O)NS(=O)(=O)c1cc(Cl)c(Cl)s1 [Compound 1001] | < 100 | 1000 to 10000 |
| C=C[C@@H]1C[C@]1(NC(=O)[C@@H]1C[C@@H](Oc2nccc3cc(OC)ccc23)CN1C(=O)[C@@H](NC(=O)OC(C)(C)C)C(C)(C)C)C(=O)NS(=O)(=O)c1sc(C)nc1C [Compound 1003] | 100 to 1000 | 100 to 1000 |
| C=C[C@@H]1C[C@]1(NC(=O)[C@@H]1C[C@@H](Oc2nccc3cc(OC)ccc23)CN1C(=O)[C@@H](NC(=O)OC(C)(C)C)C(C)(C)C)C(=O)NS(=O)(=O)c1c(C)nn(C)c1Cl [Compound 1004] | 100 to 1000 | 100 to 1000 |
| C=C[C@@H]1C[C@]1(NC(=O)[C@@H]1C[C@@H](Oc2nccc3cc(OC)ccc23)CN1C(=O)[C@@H](NC(=O)OC(C)(C)C)C(C)(C)C)C(=O)NS(=O)(=O)c1cn(C)cn1 [Compound 1005] | 1000 to 10000 | 1000 to 10000 |
| C=C[C@@H]1C[C@]1(NC(=O)[C@@H]1C[C@@H](Oc2nccc3cc(OC)ccc23)CN1C(=O)[C@@H](NC(=O)OC(C)(C)C)C(C)(C)C)C(=O)NS(=O)(=O)c1cccs1 [Compound 1006] | < 100 | 100 to 1000 |
| C=C[C@@H]1C[C@]1(NC(=O)[C@@H]1C[C@@H](Oc2nccc3cc(OC)ccc23)CN1C(=O)[C@@H](NC(=O)OC(C)(C)C)C(C)(C)C)C(=O)NS(=O)(=O)c1ccccc1 [Compound 1007] | < 100 | 100 to 1000 |
| C=C[C@@H]1C[C@]1(NC(=O)[C@@H]1C[C@@H](Oc2nccc3cc(OC)ccc23)CN1C(=O)[C@@H](NC(=O)OC(C)(C)C)C(C)(C)C)C(=O)NS(=O)(=O)c1nnc(NC(C)=O)s1 [Compound 1011] | < 100 | 1000 to 10000 |
| C=C[C@@H]1C[C@]1(NC(=O)[C@@H]1C[C@@H](Oc2nccc3cc(OC)ccc23)CN1C(=O)[C@@H](NC(=O)OC(C)(C)C)C(C)(C)C)C(=O)NS(=O)(=O)c1c(C)noc1C [Compound 1012] | 1000 to 10000 | – |

From patent US7309708B2, “Hepatitis C virus inhibitors” (priority 2003, dated 2007)
